Key:
[1] = test system: cardiovascular events in hypercholesterolemia patients; assay: JELIS partial analysis: occurrence of cardiovascular events in primary prevention hypercholesterolemia patients by risk factors; assay type: in vivo, human; details: for Incidence in the EPA-E group (cases of occurrence/all cases) / Incidence in the EPA-E group (%): with HMG-CoA RI base drug; for Rate of suppression of cardiovascular event occurrence after correcting the dispersion between groups: end of trial
Text: This trial corresponds to a partial analysis of the results obtained in JELIS (Japan EPA Lipid Intervention Study) which is a large scale clinical trial of high purity EPA preparation which was presented in The […] 2005 Annual Meeting (for general information on JELIS, see Medical Tribune, issue of Nov. 17, 2005, Feature article 3, pp. 75-76).
More specifically, for the EPA-E group (7503 cases) and the control group (7478 cases) evaluated for the primary prevention effect in the 18,645 subject patients of the JELIS trial (EPA-E group (9,326 cases) and control group (9,319 cases)), occurrence of the cardiovascular events was observed and analysed for 5 years from the start of the administration in relation to the number of risk factors at the registration as defined by the following (1) to (4): • (1) obesity: body mass index (BMI) of at least 25; • (2) hypertension or prehypertension: systolic blood pressure (SBP) of at least 140 mmHg or diastolic blood pressure (DBP) of at least 90 mmHg; • (3) diabetes, prediabetes, or abnormal glucose tolerance: fasting blood glucose (FBS) of at least 126 mg/dL or hemoglobin Alc (HbAlc) of at least 6.5%; • (4) hypertriglyceridemia or low HDL cholesterolemia: a triglyceride (TG) of at least 150 mg/dL or a HDL-C of less than 40 mg/dL.
The EPA-E group was orally administered with Epadel (Mochida Pharmaceutical Co., Ltd.) typically at an adult dose of 600 mg per administration and 3 times a day after the meal. However, in the case of abnormal serum TG, the dose could be increased to 900 mg per administration and 3 times a day. In both groups, pravastatin sodium (Mevalotin™ tablets and fine granules, Daiichi Sankyo Co., Ltd.), simvastatin (Lipovas™ tablets, Banyu Pharmaceutical Co., Ltd.), or atorvastatin calcium hydrate (Lipitor™ tablets, Astellas Pharma Inc. and Pfizer Inc.) was used for the base drug, and these drugs were orally administered according to the prescribed dosage regimen. More specifically, pravastatin sodium was orally administered at a daily dose of 10 to 20 mg in a single dose or two divided doses; simvastatin was orally administered at a daily dose of 5 to 20 mg in a single dose; atorvastatin calcium hydrate was orally administered at a daily dose of 10 to 40 mg in a single dose.
The number of occurrence of cardiovascular events in the observation period of 5 years, incidence (%), and rate of suppression of the incidence of the cardiovascular events in the EPA-E group with respect to the control group are shown in Table 1 for each number of risk factors. The rate of suppression of the incidence of the cardiovascular events was calculated by the formula: [{(incidence in the control group)−(incidence in the EPA-E group)}/incidence in the control group]×100.
From the results of the trial as described above, the number of occurrence of cardiovascular events in the observation period of 5 years, incidence (%), and rate of suppression of the incidence of the cardiovascular events in the EPA-E group with respect to the control group were calculated for the male patients having at least two risk factors. (The calculation was conducted by the same procedure as described above.)
(The calculation was conducted by the same procedure as described above.)

[2] = test system: cardiac events and serum lipids in hyperlipidemia patients; details: cited from earlier work
[3] = 1-2 risk factors, 5 years observation
[4] = 1-3 risk factors, 5 years observation
[5] = 1-4 risk factors, 5 years observation
[6] = 1 risk factor, 5 years observation
[7] = 2-3 risk factors, 5 years observation
[8] = 2-4 risk factors, 5 years observation
[9] = 2 risk factors, 5 years observation
[10] = 3-4 risk factors, 5 years observation
[11] = 3 risk factors, 5 years observation
[12] = TG of at least 150 mg/dL and HDL-C of less than 40 mg/dL
[13] = male patients with two or more risk factors
[14] = male patients, 2-4 risk factors, 5 years observation
[15] = patients with TG of at least 150 mg/dL and HDL-C of less than 40 mg/dL, 5 years
[16] = EPA-E group (with HMG-CoA RI), Non-Patent Document 3

CC/C=C\C/C=C\C/C=C\C/C=C\C/C=C\CCCC(=O)OCC [EPA-E, ethyl icosapentate]
Rate of Suppression of cardiovascular event incidence vs control group ([1]; 0 risk factors, 5 years): 22%
Incidence in the EPA-E group (cases of occurrence/all cases) ([1]; 0 risk factors, 5 years observation): 11/1326
Rate of Suppression of cardiovascular event incidence vs control group ([1]; 1-2 risk factors, 5 years): 21%
Incidence in the EPA-E group (%) [1, 3]: (1.3) %
Incidence in the EPA-E group (cases of occurrence/all cases) [1, 3]: 59/4706
Rate of Suppression of cardiovascular event incidence vs control group ([1]; 1-3 risk factors, 5 years): 18%
Incidence in the EPA-E group (%) [1, 4]: (1.5) %
Incidence in the EPA-E group (cases of occurrence/all cases) [1, 4]: 87/5935
Rate of Suppression of cardiovascular event incidence vs control group ([1]; 1-4 risk factors, 5 years): 18%
Incidence in the EPA-E group (%) [1, 5]: (1.5) %
Incidence in the EPA-E group (cases of occurrence/all cases) [1, 5]: 93/6177
Rate of Suppression of cardiovascular event incidence vs control group ([1]; 1 risk factor, 5 years): 15%
Incidence in the EPA-E group (%) [1, 6]: (1.0) %
Incidence in the EPA-E group (cases of occurrence/all cases) [1, 6]: 25/2468
Rate of Suppression of cardiovascular event incidence vs control group ([1]; 2-3 risk factors, 5 years): 16%
Incidence in the EPA-E group (%) [1, 7]: (1.8) %
Incidence in the EPA-E group (cases of occurrence/all cases) [1, 7]: 62/3467
Rate of Suppression of cardiovascular event incidence vs control group ([1]; 2-4 risk factors, 5 years): 18%
Incidence in the EPA-E group (%) [1, 8]: (1.8) %
Incidence in the EPA-E group (cases of occurrence/all cases) [1, 8]: 68/3709
Rate of Suppression of cardiovascular event incidence vs control group ([1]; 2 risk factors, 5 years): 23%
Incidence in the EPA-E group (%) [1, 9]: (1.5) %
Incidence in the EPA-E group (cases of occurrence/all cases) [1, 9]: 34/2238
Rate of Suppression of cardiovascular event incidence vs control group ([1]; 3-4 risk factors, 5 years): 14%
Incidence in the EPA-E group (%) [1, 10]: (2.3) %
Incidence in the EPA-E group (cases of occurrence/all cases) [1, 10]: 34/1471
Rate of Suppression of cardiovascular event incidence vs control group ([1]; 3 risk factors, 5 years): 5%
Incidence in the EPA-E group (%) [1, 11]: (2.3) %
Incidence in the EPA-E group (cases of occurrence/all cases) [1, 11]: 28/1229
Rate of Suppression of cardiovascular event incidence vs control group ([1]; 4 risk factors, 5 years): 40%
Incidence in the EPA-E group (cases of occurrence/all cases) ([1]; 4 risk factors, 5 years observation): 6/242
Effect on occurrence of cardiovascular events (in words) [1, 12]: significantly suppressed occurrence of cardiovascular events
Occurrence of fatal events in the EPA-E group [1, 12]: occurrence of fatal events was not found
Time from start of administration after which decrease in cardiovascular event incidence was significant [1, 12]: ≥ 2 years
Rate of suppression of cardiovascular event occurrence after correcting the dispersion between groups ([1]; TG of at least 150 mg/dL and HDL-C of less than 40 mg/dL, FIG. 2): 53%
Effect on occurrence of cardiovascular events (in words) [1, 13]: significantly suppressed the occurrence of cardiovascular events
Time from start of administration after which decrease in cardiovascular event incidence was significant [1, 13]: ≥ 2 years
Rate of suppression of cardiovascular event occurrence after correcting the dispersion between groups ([1]; male patients with two or more risk factors, FIG. 1): 55%
Incidence in the EPA-E group (%) [1, 14]: (1.8) %
Incidence in the EPA-E group (cases of occurrence/all cases) [1, 14]: 19/1065
Rate of Suppression of cardiovascular event incidence vs control group ([1]; male patients, 2-4 risk factors, 5 years, uncorrected): 56%
Suppression of occurrence of cardiovascular events vs control group ([1]; patients with HDL-C of less than 40 mg/dL, uncorrected): 35%
Rate of Suppression of cardiovascular event incidence vs control group ([1]; patients with TG of at least 150 mg/dL and HDL-C of less than 40 mg/dL, 5 years, uncorrected): 48%
Incidence in the EPA-E group (%) [1, 15]: (2.3) %
Incidence in the EPA-E group (cases of occurrence/all cases) [1, 15]: 11/482
Suppression of occurrence of cardiovascular events vs control group ([1]; patients with triglyceride of at least 150 mg/dL, uncorrected): 15%
Change of HDL-cholesterol value ([2]; EPA-E group (with HMG-CoA RI), Non-Patent Document 2): slight
Change in HDL-C [2, 16]: little change
Decrease of LDL-cholesterol [2, 16]: 25%
Decrease of total cholesterol [2, 16]: 19%
Reduction of LDL-cholesterol value ([2]; EPA-E group (with HMG-CoA RI), after 5 years, Non-Patent Document 2): 26%
Decrease of triglyceride ([2]; EPA-E group (with HMG-CoA RI), significant, Non-Patent Document 3): 9%
Incidence of events vs control group (in words) ([2]; analysis limited to the primary prevention patients): this difference was not statistically significant
Suppression of cardiac events (in words) ([2]; total of primary and secondary prevention patients, and secondary prevention patients): statistically significant suppression
